# Patent publication US20260048111A1, “Pharmaceutical Composition, Preparation Method and Use Thereof” (PuGong Biotech (Hangzhou) Co., Ltd., priority 2023, published 2026)
# Read-outs that look alike come from different tables or passages of the source.
# Experiments:
# [1] = tested on: Mouse Lewis lung carcinoma (LLC) cells; assay: Anti-tumor efficacy of PGc alone and with anti-mouse PD-1, LLC tumor in C57BL/6 mice (Example 6); format: in vivo
# Method: The LLC cells were cultured in DMEM medium containing 10% high-quality fetal bovine serum (FBS) and maintained in a cell incubator with 5% CO2 at 37° C.
# The LLC cells (tumor source) in the logarithmic growth phase were collected, and 0.1 mL of cell suspension (approximately 1×10^6 cells) was inoculated subcutaneously into the axillary region of the corresponding mice.
# (§1) On day 1 after tumor cell inoculation, all mice were randomly grouped before drug administration.
# (§2) Dosing was performed according to the design of the pharmacological study protocol.
# On day 10 after tumor cell inoculation, the experiment was terminated, and tumors in each group of animals were excised and weighed.
# Statistical Analysis and Tumor Inhibition Rate Calculation was as follows: Data were statistically analyzed using GraphPad Prism software.
# LLC cells = format: in vivo, mouse; conditions: for Tumor Inhibition Rate: LLC
# Method: The LLC cells were cultured in DMEM medium containing […] high-quality fetal bovine serum, in a cell incubator with […] CO2 at 37° C.
# The LLC cells (tumor source) in the logarithmic growth phase were collected, and 0.1 mL of cell suspension (containing approximately 1×10^6 cells) was inoculated subcutaneously into the axillary region of the corresponding C57/BL/6 mice.
# as §1, §2
# On day 7 and day 9 after tumor cell inoculation, the length (a) and width (b) of the tumor in each group of animals were measured externally. The tumor volume was estimated using the formula: V=0.52×a×b^2.
# On day 10 after tumor cell inoculation, the experiment was terminated, and tumors were excised and weighed from each group of animals.
# Statistical analysis and tumor inhibition rate calculation were performed as follows: Data were statistically analyzed using GraphPad Prism software. The tumor inhibition rate was calculated based on tumor size or tumor weight using the following formula: Tumor Inhibition Rate (%)=[(Average tumor volume or tumor weight of control group−Average tumor volume or tumor weight of treatment group)/Average tumor volume or tumor weight of control group]×[…].
smiles,measurement,setting,value
"O=P1(N(CCCl)CCCl)NCCCO1 (centres unmarked) [Cyclophosphamide (CTX), Cyclophosphamide]",Tumor Weight (g) X ± SD,"[1]; LLC s.c. in C57BL/6 mice, tumors excised at termination (day 8 in protocol table, day 10 in text)",0.03 ± 0.02 g
same,Tumor Inhibition Rate,"[1]; LLC, from tumor weight vs NS",42.80%
same,Tumor Volume (mm^3) X,"LLC cells; LLC s.c. in C57/BL/6 mice, day 7 after tumor cell inoculation, group mean",80.40 mm^3
same,Tumor Volume (mm^3) X,"LLC cells; LLC s.c. in C57/BL/6 mice, day 9 after tumor cell inoculation, group mean",112.89 mm^3
same,Tumor Weight (g) X,"LLC cells; LLC s.c. in C57/BL/6 mice, day 10 after tumor cell inoculation, group mean",0.13 g
same,Tumor Inhibition Rate,"LLC cells; day 7 after tumor cell inoculation, from tumor volume vs NS",33%
same,Tumor Inhibition Rate,"LLC cells; day 9 after tumor cell inoculation, from tumor volume vs NS",47%
same,Tumor Inhibition Rate,"LLC cells; day 10 after tumor cell inoculation, from tumor weight vs NS",45%
